The values that follow come from article PMC4977052, “On the Utility of ToxCast™ and ToxPi as Methods for Identifying New Obesogens” (Environmental Health Perspectives, 2016).

One data set concerns 3T3-L1 preadipocytes. Kind of data set: 3T3-L1 adipogenesis assay (lipid accumulation, adipogenic gene expression). The conditions noted are these: for Adipogenesis 3T3-L1 (result in words): 0.02-20 μM, 5 days after MDI induction; for Adipogenic gene expression (Fabp4, Fsp27, Lpl), QPCR: 3T3-L1, Figure 2A; for Induction of adipogenesis in 3T3-L1 preadipocytes, doses: lipid accumulation, Nile red/Hoechst, Figure 2A. The format is cell-based. Put shortly: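 After 2-day MDI induction with biotin and pantothenate, 3T3-L1 cells were treated 5 days with chemicals at 0.02–20 μM (0.1% DMSO; 10 μM if toxic). Lipid read as Nile red/Hoechst fluorescence ratio; adipogenic genes by QPCR, 2^ΔΔCt versus 36b4, normalized to DMSO.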

The subject of another data set is PPRE. On the set-up: method as in Knudsen et al. 2011. The conditions noted are these: ToxCast Phase I 2011 release; NA = not active; ref Knudsen et al. 2011; read-out: ATGC PPRE AC50; cited from earlier work.
Data set [1] has as its system PPARγ. The conditions noted are these: cited from earlier work; for PPARγ agonists: EC10, NCGC: AC10, ToxCast 2014 release; for AC50: PPARγ, NA = not active; for pEC50: gain AC50, ToxCast 2014 release, read-out: PPARγ agonists: EC50, NCGC.
For data set [2], the system named is PPARγ. On the set-up: method as in Filer et al. 2014. The conditions noted are these: ref Filer et al. 2014, cited from earlier work; for AC50: PPARγ, NA = not active, read-out: NCGC Antag. AC50, 2014 Release.
The subject of another data set is Human PPARγ. The conditions noted are these: PPARγ direct binding, NA = not active, cited from earlier work.
Another data set has as its target T1, GAL4-mPPARγ (Mus musculus, UniProt P37238).
T1 construct: expressed in transfected cells; host or cells: COS7
Kind of data set: GAL4-mPPARγ antagonism in competition with 50 nM rosiglitazone, transiently transfected COS7 cells. The format is cell-based. As for the experimental part: pCMX-Gal4, pCMX-Gal4-mPPARγ, and pCMX-Gal4-hRXRα were previously described ([Grün et al. 2006]). Transient transfections were performed in COS7 cells as described ([Chamorro-García et al. 2012]). Briefly, COS7 cells were seeded at 15,000 cells per well in 96-well tissue culture plates in 10% calf bovine serum. The following day, cells were transfected in Opti-MEM at ~ 90% confluency. One microgram of CMX-GAL4 effector plasmid was co-transfected with 5 μg tk-(MH100)4-luciferase reporter and 5 μg of CMX-β-galactosidase transfection control plasmids in Opti-MEM® using Lipofectamine® 2000 reagent (Invitrogen™ Life Technologies, Carlsbad, CA, USA), following the manufacturer’s recommended protocol. All chemicals were solvated in dimethyl sulfoxide (DMSO). After overnight incubation, the medium was replaced with Dulbecco’s Modified Eagle Medium (DMEM; HyClone, Logan, UT, USA), 10% resin charcoal stripped fetal bovine serum (FBS) plus ligands at concentrations indicated in the figure legends for an additional 24 hr. DMSO concentration was maintained at 0.05% across all chemical treatments. Cells were lysed and assayed for luciferase and β-galactosidase activity as previously described ([Forman et al. 1995]). All transfections were performed in triplicate and reproduced in multiple experiments. Data are reported as fold induction or reduction over vehicle ([…]) controls ± SEM (standard error of the mean) using standard propagation of error ([Bevington and Robinson 2003]). […] The EC50, EC10, IC50, and IC10 values from NCGC and ToxCast™ are reported from gain AC50 and AC10 values in the ToxCast™ 2014 release ([Filer et al. 2014]).
Figure 1 ToxCast™ Chemical Activity on PPARγ. The ability of a graded dose series of ToxCast™ chemicals to (A) activate or (B) antagonize GAL4-mPPARγ was tested in transiently transfected COS7 cells. (A, B) Data points are averages of triplicate transfections (three biological replicates). […] Data are depicted as (A) fold induction or (B) reduction over vehicle (0.05% DMSO) controls ± SEM. (A) ToxCast™ chemicals were tested in 3-fold serial dilutions from 100 μM through 0.137 μM, with the final data point being 0.05% DMSO. Rosiglitazone serves as a positive control activator. (B) ToxCast™ chemicals were tested in 3-fold serial dilutions from 100 μM, in competition with 50 nM rosiglitazone (Rosi). […] (C) EC50, EC10, IC50, and IC10 values calculated from A and B are reported and compared to commercial assays (see Figure S1). Note: ATG, Attagene GAL-PPARγ activation assay; NCGC, GeneBLAzer® agonist (EC values) or antagonist (IC values) assays. Triphenyltin was previously published ([Kanayama et al. 2005]).

Setting [3] is: ref Filer et al. 2014, read-out: NCGC Agonist AC50, 2014 Release.
Setting [4] is: ref Knudsen et al. 2011, read-out: NCGC Agonist AC50, 2011 Release.

pEC50, pIC50: −log10 of the molar value. Where two headings read alike, the source gives them in different places.

As usually defined, the AC50 is the concentration at which the activity in the assay is half-maximal. A word on the pEC50: it is the negative decadic logarithm of the EC50, by convention in mol/L. The term pIC50 denotes −log10 of the IC50, conventionally taken in molar units.

T1 sequence (P37238 with tags, fused parts or gaps limits assumed): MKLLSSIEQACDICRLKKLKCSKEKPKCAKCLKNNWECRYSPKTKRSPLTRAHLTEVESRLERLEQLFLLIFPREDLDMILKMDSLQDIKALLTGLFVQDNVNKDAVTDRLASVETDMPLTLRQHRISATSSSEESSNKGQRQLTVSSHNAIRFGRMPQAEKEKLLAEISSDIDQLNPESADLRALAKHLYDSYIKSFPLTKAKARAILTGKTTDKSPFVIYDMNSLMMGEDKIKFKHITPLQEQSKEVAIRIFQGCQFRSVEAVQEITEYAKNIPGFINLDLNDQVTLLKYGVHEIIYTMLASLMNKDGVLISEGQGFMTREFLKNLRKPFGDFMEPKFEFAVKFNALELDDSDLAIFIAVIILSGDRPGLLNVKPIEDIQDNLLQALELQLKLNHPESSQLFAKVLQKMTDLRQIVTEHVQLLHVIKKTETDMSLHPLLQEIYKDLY

In the case of `Fc1ccc(Oc2ccnc3cc(Cl)cc(Cl)c23)cc1` [Quinoxyfen], in the data set with 3T3-L1 preadipocytes, the “Adipogenesis 3T3-L1 (result in words)” value was “Positive”. In addition, the concentration at half-maximal activity (AC50) in the data set with PPRE is 2.8 µM; in the data set with PPARγ [1] (setting [3]) it was 40.6 µM; with PPARγ [1] (setting [4]), 6.7 µM. The “PPARγ agonists: EC10, NCGC” value in the data set with PPARγ [1] (ref Filer et al. 2014) was 2.44 µM. The pEC50 in the data set on PPARγ [1] (ref Filer et al. 2014) was 4.39.

Consider `CCC(C)(C)C(=O)OC1=C(c2ccc(Cl)cc2Cl)C(=O)OC12CCCCC2` [Spirodiclofen], for which, in the data set on 3T3-L1 preadipocytes, the “Adipogenesis 3T3-L1 (result in words)” value is given as “Positive”; the “Adipogenic gene expression (Fabp4, Fsp27, Lpl), QPCR” value is on record as “increases”; the “Induction of adipogenesis in 3T3-L1 preadipocytes, doses” value was “induced adipogenesis at all doses tested”. In the data set with PPARγ [1] (ref Filer et al. 2014), the “PPARγ agonists: EC10, NCGC” value is 0.17 µM and the pEC50 is 5.79. For the same molecule, the AC50 in the data set on PPARγ [1] (setting [3]) was 1.6 µM. In addition, in the data set on PPARγ [1] (setting [4]), the half-maximal activity concentration (AC50) is 2.8 µM.

With `O=[N+]([O-])c1cc(C(F)(F)F)c(Cl)c([N+](=O)[O-])c1Nc1ncc(C(F)(F)F)cc1Cl` [Fluazinam], the “Adipogenesis 3T3-L1 (result in words)” value in the data set with 3T3-L1 preadipocytes is recorded as “Negative”. In the data set on PPARγ [2] (AC10, ToxCast 2014 release), the “PPARγ antagonists: IC10, NCGC” value is 0.20 µM. Further, the AC50 in the data set on PPARγ [2] was 1.3 µM; in the data set on Human PPARγ (ref Filer et al. 2014, read-out: NVS Agonist AC50, 2014 Release) it was 0.26 µM; in the data set with Human PPARγ (ref Knudsen et al. 2011, read-out: NVS Agonist AC50, 2011 Release), 0.28 µM; in the data set on PPARγ [1] (setting [3]), 0.07 µM; at GAL4-mPPARγ (Activation AC50 (PPARγ antagonists), Cos-7 transient transfection, competition with 50 nM rosiglitazone), 7.2 µM. In addition, the pIC50 with PPARγ [2] (read-out: PPARγ antagonists: IC50, NCGC, gain AC50, ToxCast 2014 release) is 5.90; on GAL4-mPPARγ, 5.14. In addition, the “Antagonism of PPARγ” value on GAL4-mPPARγ (COS7, competition against 50 nM rosiglitazone) is listed as “weak antagonists”. For the same molecule, the “PPARγ antagonists: IC10, Fig 1B” value on GAL4-mPPARγ (COS7, in competition with 50 nM rosiglitazone, computed from IC50) was found to be 4.41 µM. The “Activation COS7 (result in words): PPARγ antagonist” value at GAL4-mPPARγ (Cos-7 transient transfection, competition with 50 nM rosiglitazone) is on record as “PPARγ antagonist”.

Turning to `CCC(C)(NC(=O)c1cc(Cl)c(C)c(Cl)c1)C(=O)CCl` (stereo not shown) [Zoxamide], in the data set on 3T3-L1 preadipocytes, the “Lipid accumulation: TOXIC mark in place of bar” value was “TOXIC”; the “Adipogenesis 3T3-L1 (result in words)” value is “Positive”; the “Adipogenic gene expression (Fabp4, Fsp27, Lpl), QPCR” value was “increases”; the “Induction of adipogenesis in 3T3-L1 preadipocytes, doses” value is given as “induced adipogenesis at the lowest dose”. Also, the “Concentration toxic to 3T3-L1 cells” value with 3T3-L1 preadipocytes (mouse, 5 days) is no less than 10 µM. The AC50 in the data set on PPARγ [2] is 0.4 µM.
